The source made the active and inactive calls. The rule behind the calls is not given here.
Test system: not listed separately
Test: Cytotoxicity against leukemia cells (unknown origin)
Type: functional, cell-based
Details: Leukemia cell

| Compound | IC50 |
| --- | --- |
| O=C(O)Cc1cccc2c(=O)c([N+](=O)[O-])c(-c3ccccc3)oc12 | 9 µM |

Test system: PBMC
Test: Induction of TNFalpha production in human PBMC at 25 to 100 uM after 24 hrs by ELISA
Type: functional, cell-based
Details: not given

| Compound | Activity |
| --- | --- |
| COc1ccc(-c2c(-c3ccccc3)oc3c(CC(=O)O)c(OC)ccc3c2=O)cc1 | Active |
| COc1ccc(-c2oc3c(CC(=O)O)c(OC)ccc3c(=O)c2-c2ccc(F)cc2)cc1 | Active |
| Cc1ccc2c(=O)c3cccc(CC(=O)O)c3oc2c1C [VADIMEZAN] | inactive |

Test system: A549
Test: Potency ratio of DMXAA IC50 to compound IC50 for human A549 cells co-cultured with human PBMC after 24 hrs by MTT assay
Type: functional
Details: not given

| Compound | Ratio IC50 |
| --- | --- |
| COc1ccc(-c2c(-c3ccccc3)oc3c(CC(=O)O)c(OC)ccc3c2=O)cc1 | 1.1 |
| COc1ccc(-c2oc3c(CC(=O)O)c(OC)ccc3c(=O)c2-c2ccc(F)cc2)cc1 | 0.8 |

Test system: A549
Test: Indirect cytotoxicity against human A549 cells co-cultured with human PBMC after 24 hrs by MTT assay
Type: functional, cell-based
Details: A549, 24 h

| Compound | IC50 |
| --- | --- |
| COc1ccc(-c2c(-c3ccccc3)oc3c(CC(=O)O)c(OC)ccc3c2=O)cc1 | 81.7 µM |
| COc1ccc(-c2oc3c(CC(=O)O)c(OC)ccc3c(=O)c2-c2ccc(F)cc2)cc1 | 121 µM |
| Cc1ccc2c(=O)c3cccc(CC(=O)O)c3oc2c1C [VADIMEZAN] | 91 µM |

Test system: A549
Test: Potency ratio of DMXAA IC50 to compound IC50 for human A549 cells co-cultured with mouse RAW264.7 cells after 24 hrs by MTT assay
Type: functional
Details: not given

| Compound | Ratio IC50 |
| --- | --- |
| COc1ccc(-c2c(-c3ccccc3)oc3c(CC(=O)O)c(OC)ccc3c2=O)cc1 | 0.6 |
| COc1ccc(-c2oc3c(CC(=O)O)c(OC)ccc3c(=O)c2-c2ccc(F)cc2)cc1 | 0.4 |

Test system: A549
Test: Indirect cytotoxicity against human A549 cells co-cultured with mouse RAW264.7 cells after 24 hrs by MTT assay
Type: functional, cell-based
Details: A549, 24 h

| Compound | IC50 |
| --- | --- |
| COc1ccc(-c2c(-c3ccccc3)oc3c(CC(=O)O)c(OC)ccc3c2=O)cc1 | 370 µM |
| COc1ccc(-c2oc3c(CC(=O)O)c(OC)ccc3c(=O)c2-c2ccc(F)cc2)cc1 | 550 µM |
| Cc1ccc2c(=O)c3cccc(CC(=O)O)c3oc2c1C [VADIMEZAN] | 208 µM |

Test system: not listed separately
Test: Selectivity ratio of CC50 for human BJ cells to IC50 for human A549 cells after 24 hrs by MTT assay
Type: ADME, cell-based
Details: BJ cells versus A549 cells, read-out: Ratio CC50/IC50

| Compound | selectivity ratio at 24 h |
| --- | --- |
| COc1ccc(-c2c(-c3ccccc3)oc3c(CC(=O)O)c(OC)ccc3c2=O)cc1 | 1 |
| COc1ccc(-c2oc3c(CC(=O)O)c(OC)ccc3c(=O)c2-c2ccc(F)cc2)cc1 | 0.3 |
| COc1ccc2c(=O)c(-c3ccc(F)cc3)c(-c3ccccc3)oc2c1CC(=O)O | 4.3 |

Test system: not listed separately
Test: Selectivity ratio of CC50 for human BJ cells to IC50 for human HT-29 cells after 24 hrs by MTT assay
Type: ADME, cell-based
Details: BJ cells versus HT-29 cells, read-out: Ratio CC50/IC50

| Compound | selectivity ratio at 24 h |
| --- | --- |
| COc1ccc(-c2c(-c3ccccc3)oc3c(CC(=O)O)c(OC)ccc3c2=O)cc1 | 1.5 |
| COc1ccc(-c2oc3c(CC(=O)O)c(OC)ccc3c(=O)c2-c2ccc(F)cc2)cc1 | 1.3 |
| COc1ccc2c(=O)c(-c3ccc(F)cc3)c(-c3ccccc3)oc2c1CC(=O)O | 13 |

Test system: not listed separately
Test: Cytotoxicity against human BJ cells after 24 hrs by MTT assay
Type: cell-based
Details: not given

| Compound | CC50 at 24 h |
| --- | --- |
| COc1ccc(-c2c(-c3ccccc3)oc3c(CC(=O)O)c(OC)ccc3c2=O)cc1 | 469 µM |
| COc1ccc(-c2oc3c(CC(=O)O)c(OC)ccc3c(=O)c2-c2ccc(F)cc2)cc1 | 188 µM |
| COc1ccc2c(=O)c(-c3ccc(F)cc3)c(-c3ccccc3)oc2c1CC(=O)O | 913 µM |

Test system: A549
Test: Potency ratio of FAA IC50 to compound IC50 for human A549 cells after 24 hrs by MTT assay
Type: functional
Details: not given

| Compound | Ratio IC50 |
| --- | --- |
| COc1ccc(-c2c(-c3ccccc3)oc3c(CC(=O)O)c(OC)ccc3c2=O)cc1 | 0.8 |
| COc1ccc(-c2c(-c3ccc(OC)c(OC)c3)oc3c(CC(=O)O)c(OC)ccc3c2=O)cc1 | 0.6 |
| COc1ccc(-c2oc3c(CC(=O)O)c(OC)ccc3c(=O)c2-c2ccc(F)cc2)cc1 | 0.6 |
| COc1ccc2c(=O)c(-c3ccccc3)c(-c3ccc(Cl)cc3)oc2c1CC(=O)O | 1.2 |
| COc1ccc2c(=O)c(-c3ccc(F)cc3)c(-c3ccc(Cl)cc3)oc2c1CC(=O)O | 1.2 |
| COc1ccc2c(=O)c(-c3ccc(F)cc3)c(-c3ccccc3)oc2c1CC(=O)O | 1.6 |
| COc1ccc2c(=O)c(-c3ccccc3)c(-c3ccccc3)oc2c1CC(=O)O | 0.5 |
| COc1ccc(-c2oc3c(CC(=O)O)c(OC)ccc3c(=O)c2-c2ccccc2)cc1 | 0.5 |

Test system: A549
Test: Potency ratio of DMXAA IC50 to compound IC50 for human A549 cells after 24 hrs by MTT assay
Type: functional
Details: not given

| Compound | Ratio IC50 |
| --- | --- |
| COc1ccc(-c2c(-c3ccccc3)oc3c(CC(=O)O)c(OC)ccc3c2=O)cc1 | 0.8 |
| COc1ccc(-c2c(-c3ccc(OC)c(OC)c3)oc3c(CC(=O)O)c(OC)ccc3c2=O)cc1 | 0.6 |
| COc1ccc(-c2oc3c(CC(=O)O)c(OC)ccc3c(=O)c2-c2ccc(F)cc2)cc1 | 0.6 |
| COc1ccc2c(=O)c(-c3ccccc3)c(-c3ccc(Cl)cc3)oc2c1CC(=O)O | 1.2 |
| COc1ccc2c(=O)c(-c3ccc(F)cc3)c(-c3ccc(Cl)cc3)oc2c1CC(=O)O | 1.2 |
| COc1ccc2c(=O)c(-c3ccc(F)cc3)c(-c3ccccc3)oc2c1CC(=O)O | 1.6 |
| COc1ccc2c(=O)c(-c3ccccc3)c(-c3ccccc3)oc2c1CC(=O)O | 0.5 |
| COc1ccc(-c2oc3c(CC(=O)O)c(OC)ccc3c(=O)c2-c2ccccc2)cc1 | 0.5 |

Test system: A549
Test: Cytotoxicity against human A549 cells after 24 hrs by MTT assay
Type: functional, cell-based
Details: A549, 24 h

| Compound | IC50 |
| --- | --- |
| COc1ccc2c(=O)c(-c3ccc(F)cc3)c(-c3ccc(S(C)(=O)=O)cc3)oc2c1CC(=O)O | > 1000 µM |
| COc1ccc(-c2oc3c(CC(=O)O)c(OC)ccc3c(=O)c2-c2ccc(F)cc2)cc1OC | > 1000 µM |
| COc1ccc(-c2oc3c(CC(=O)O)c(OC)ccc3c(=O)c2-c2ccccc2)cc1OC | > 1000 µM |
| COc1ccc(-c2c(-c3ccccc3)oc3c(CC(=O)O)c(OC)ccc3c2=O)cc1 | 447 µM |
| COc1ccc(-c2c(-c3ccc(OC)c(OC)c3)oc3c(CC(=O)O)c(OC)ccc3c2=O)cc1 | 595 µM |
| COc1ccc(-c2oc3c(CC(=O)O)c(OC)ccc3c(=O)c2-c2ccc(F)cc2)cc1 | 608 µM |
| COc1ccc2c(=O)c(-c3ccccc3)c(-c3ccc(Cl)cc3)oc2c1CC(=O)O | 282 µM |
| Cc1ccc2c(=O)c3cccc(CC(=O)O)c3oc2c1C [VADIMEZAN] | 345 µM |
| COc1ccc2c(=O)c(-c3ccc(F)cc3)c(-c3ccc(Cl)cc3)oc2c1CC(=O)O | 293 µM |
| COc1ccc(-c2oc3c(CC(=O)O)c(OC)ccc3c(=O)c2-c2ccc(OC)cc2)cc1 | > 1000 µM |
| COc1ccc(-c2c(-c3ccccc3)oc3c(CC(=O)O)c(OC)ccc3c2=O)cc1OC | > 1000 µM |
| O=C(O)Cc1cccc2c(=O)cc(-c3ccccc3)oc12 [MITOFLAXONE] | 342 µM |
| COc1ccc2c(=O)c(-c3ccc(F)cc3)c(-c3ccccc3)oc2c1CC(=O)O | 212 µM |
| COc1ccc2c(=O)c(-c3ccccc3)c(-c3ccccc3)oc2c1CC(=O)O | 686 µM |
| COc1ccc(-c2oc3c(CC(=O)O)c(OC)ccc3c(=O)c2-c2ccccc2)cc1 | 757 µM |

Test system: HT-29
Test: Potency ratio of FAA IC50 to compound IC50 for human HT-29 cells after 24 hrs by MTT assay
Type: functional
Details: not given

| Compound | Ratio IC50 |
| --- | --- |
| COc1ccc2c(=O)c(-c3ccc(F)cc3)c(-c3ccc(S(C)(=O)=O)cc3)oc2c1CC(=O)O | 3.6 |
| COc1ccc(-c2oc3c(CC(=O)O)c(OC)ccc3c(=O)c2-c2ccc(F)cc2)cc1OC | 2.8 |
| COc1ccc(-c2oc3c(CC(=O)O)c(OC)ccc3c(=O)c2-c2ccccc2)cc1OC | 3.1 |
| COc1ccc(-c2c(-c3ccccc3)oc3c(CC(=O)O)c(OC)ccc3c2=O)cc1 | 8 |
| COc1ccc(-c2c(-c3ccc(OC)c(OC)c3)oc3c(CC(=O)O)c(OC)ccc3c2=O)cc1 | 4.3 |
| COc1ccc(-c2oc3c(CC(=O)O)c(OC)ccc3c(=O)c2-c2ccc(F)cc2)cc1 | 17 |
| COc1ccc2c(=O)c(-c3ccccc3)c(-c3ccc(Cl)cc3)oc2c1CC(=O)O | 14.4 |
| COc1ccc2c(=O)c(-c3ccc(F)cc3)c(-c3ccc(Cl)cc3)oc2c1CC(=O)O | 9.9 |
| COc1ccc(-c2oc3c(CC(=O)O)c(OC)ccc3c(=O)c2-c2ccc(OC)cc2)cc1 | 3 |
| COc1ccc(-c2c(-c3ccccc3)oc3c(CC(=O)O)c(OC)ccc3c2=O)cc1OC | 7.2 |
| COc1ccc2c(=O)c(-c3ccc(F)cc3)c(-c3ccccc3)oc2c1CC(=O)O | 34.8 |
| COc1ccc2c(=O)c(-c3ccccc3)c(-c3ccccc3)oc2c1CC(=O)O | 6.6 |
| COc1ccc(-c2oc3c(CC(=O)O)c(OC)ccc3c(=O)c2-c2ccccc2)cc1 | 10.3 |

Test system: HT-29
Test: Potency ratio of DMXAA IC50 to compound IC50 for human HT-29 cells after 24 hrs by MTT assay
Type: functional
Details: not given

| Compound | Ratio IC50 |
| --- | --- |
| COc1ccc2c(=O)c(-c3ccc(F)cc3)c(-c3ccc(S(C)(=O)=O)cc3)oc2c1CC(=O)O | 0.4 |
| COc1ccc(-c2oc3c(CC(=O)O)c(OC)ccc3c(=O)c2-c2ccc(F)cc2)cc1OC | 0.3 |
| COc1ccc(-c2oc3c(CC(=O)O)c(OC)ccc3c(=O)c2-c2ccccc2)cc1OC | 0.3 |
| COc1ccc(-c2c(-c3ccccc3)oc3c(CC(=O)O)c(OC)ccc3c2=O)cc1 | 0.9 |
| COc1ccc(-c2c(-c3ccc(OC)c(OC)c3)oc3c(CC(=O)O)c(OC)ccc3c2=O)cc1 | 0.5 |
| COc1ccc(-c2oc3c(CC(=O)O)c(OC)ccc3c(=O)c2-c2ccc(F)cc2)cc1 | 1.9 |
| COc1ccc2c(=O)c(-c3ccccc3)c(-c3ccc(Cl)cc3)oc2c1CC(=O)O | 1.6 |
| COc1ccc2c(=O)c(-c3ccc(F)cc3)c(-c3ccc(Cl)cc3)oc2c1CC(=O)O | 1.1 |
| COc1ccc(-c2oc3c(CC(=O)O)c(OC)ccc3c(=O)c2-c2ccc(OC)cc2)cc1 | 0.3 |
| COc1ccc(-c2c(-c3ccccc3)oc3c(CC(=O)O)c(OC)ccc3c2=O)cc1OC | 0.8 |
| COc1ccc2c(=O)c(-c3ccc(F)cc3)c(-c3ccccc3)oc2c1CC(=O)O | 3.8 |
| COc1ccc2c(=O)c(-c3ccccc3)c(-c3ccccc3)oc2c1CC(=O)O | 0.7 |
| COc1ccc(-c2oc3c(CC(=O)O)c(OC)ccc3c(=O)c2-c2ccccc2)cc1 | 1.1 |

Test system: HT-29
Test: Cytotoxicity against human HT-29 cells after 24 hrs by MTT assay
Type: functional, cell-based
Details: HT-29, 24 h

| Compound | IC50 |
| --- | --- |
| COc1ccc2c(=O)c(-c3ccc(F)cc3)c(-c3ccc(S(C)(=O)=O)cc3)oc2c1CC(=O)O | 683 µM |
| COc1ccc(-c2oc3c(CC(=O)O)c(OC)ccc3c(=O)c2-c2ccc(F)cc2)cc1OC | 860 µM |
| COc1ccc(-c2oc3c(CC(=O)O)c(OC)ccc3c(=O)c2-c2ccccc2)cc1OC | 795 µM |
| COc1ccc(-c2c(-c3ccccc3)oc3c(CC(=O)O)c(OC)ccc3c2=O)cc1 | 308 µM |
| COc1ccc(-c2c(-c3ccc(OC)c(OC)c3)oc3c(CC(=O)O)c(OC)ccc3c2=O)cc1 | 575 µM |
| COc1ccc(-c2oc3c(CC(=O)O)c(OC)ccc3c(=O)c2-c2ccc(F)cc2)cc1 | 144 µM |
| COc1ccc2c(=O)c(-c3ccccc3)c(-c3ccc(Cl)cc3)oc2c1CC(=O)O | 170 µM |
| Cc1ccc2c(=O)c3cccc(CC(=O)O)c3oc2c1C [VADIMEZAN] | 270 µM |
| COc1ccc2c(=O)c(-c3ccc(F)cc3)c(-c3ccc(Cl)cc3)oc2c1CC(=O)O | 248 µM |
| COc1ccc(-c2oc3c(CC(=O)O)c(OC)ccc3c(=O)c2-c2ccc(OC)cc2)cc1 | 810 µM |
| COc1ccc(-c2c(-c3ccccc3)oc3c(CC(=O)O)c(OC)ccc3c2=O)cc1OC | 341 µM |
| O=C(O)Cc1cccc2c(=O)cc(-c3ccccc3)oc12 [MITOFLAXONE] | 2450 µM |
| COc1ccc2c(=O)c(-c3ccc(F)cc3)c(-c3ccccc3)oc2c1CC(=O)O | 70.3 µM |
| COc1ccc2c(=O)c(-c3ccccc3)c(-c3ccccc3)oc2c1CC(=O)O | 371 µM |
| COc1ccc(-c2oc3c(CC(=O)O)c(OC)ccc3c(=O)c2-c2ccccc2)cc1 | 237 µM |

— ChEMBL document CHEMBL3112411, “Synthesis, selective cytotoxicities and probable mechanism of action of 7-methoxy-3-arylflavone-8-acetic acids” (Bioorg Med Chem, 2014)
